Consider six cell lines from the supplement of paper PMC10307832.

Common to all, as to assay: relative viability (nuclei count vs DMSO), 5 days (fraction); higher = more cells survive
Compound in the assay “Venetoclax + OSI-027”: CC1(C)CCC(CN2CCN(c3ccc(C(=O)NS(=O)(=O)c4ccc(NCC5CCOCC5)c([N+](=O)[O-])c4)c(Oc4cnc5[nH]ccc5c4)c3)CC2)=C(c2ccc(Cl)cc2)C1 [Venetoclax] + COc1cccc2cc(-c3nc([C@H]4CC[C@H](C(=O)O)CC4)n4ncnc(N)c34)[nH]c12 [OSI-027] (partner 0.5 µM)
The procedure, abridged:
(§1)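 Relative viability divides the nuclei count in treated wells by that in vehicle wells. Lung cancer cell lines were seeded in 1536-well plates, dosed by pin tool the next day, and fixed and stained after 5 days in one step with final 0.05% Triton X-100, 1% formaldehyde and 1 ug/ml Hoechst. Dosing was a single drug or a fixed anchor-drug dose plus five library-drug doses (not always all listed) in √10 steps, and values are medians of duplicate plates imaged at 4×.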

Compound in the assay “Venetoclax + Tozasertib”: CC1(C)CCC(CN2CCN(c3ccc(C(=O)NS(=O)(=O)c4ccc(NCC5CCOCC5)c([N+](=O)[O-])c4)c(Oc4cnc5[nH]ccc5c4)c3)CC2)=C(c2ccc(Cl)cc2)C1 [Venetoclax] + Cc1cc(Nc2cc(N3CCN(C)CC3)nc(Sc3ccc(NC(=O)C4CC4)cc3)n2)n[nH]1 [Tozasertib] (partner 0.1 µM)
The procedure, abridged: as §1

Compound in the assay “Venetoclax + Linsitinib”: CC1(C)CCC(CN2CCN(c3ccc(C(=O)NS(=O)(=O)c4ccc(NCC5CCOCC5)c([N+](=O)[O-])c4)c(Oc4cnc5[nH]ccc5c4)c3)CC2)=C(c2ccc(Cl)cc2)C1 [Venetoclax] + C[C@]1(O)C[C@@H](c2nc(-c3ccc4ccc(-c5ccccc5)nc4c3)c3c(N)nccn32)C1 [Linsitinib] (partner 1 µM)
The procedure, abridged:
as §1

Compound in the assay “Venetoclax + Pictilisib”: CC1(C)CCC(CN2CCN(c3ccc(C(=O)NS(=O)(=O)c4ccc(NCC5CCOCC5)c([N+](=O)[O-])c4)c(Oc4cnc5[nH]ccc5c4)c3)CC2)=C(c2ccc(Cl)cc2)C1 [Venetoclax] + CS(=O)(=O)N1CCN(Cc2cc3nc(-c4cccc5[nH]ncc45)nc(N4CCOCC4)c3s2)CC1 [Pictilisib] (partner 1 µM)
The procedure, abridged:
as §1

In the case of NCI-H2126, the relative viability worked out at 0.691 with Venetoclax + OSI-027 (first compound 0.01 µM); 0.794 with Venetoclax + OSI-027 (first compound 0.03162 µM); 0.719 in the assay with Venetoclax + OSI-027 (first compound 0.1 µM); 0.692 with Venetoclax + OSI-027 (first compound 0.3162 µM); 0.636 in the assay with Venetoclax + OSI-027 (first compound 1 µM); 0.822 with Venetoclax + Tozasertib (first compound 0.01 µM). In addition, the relative viability stood at 0.791 in the assay with Venetoclax + Tozasertib (first compound 0.03162 µM); 0.867 with Venetoclax + Tozasertib (first compound 0.1 µM); 0.86 with Venetoclax + Tozasertib (first compound 0.3162 µM); 0.759 with Venetoclax + Tozasertib (first compound 1 µM); 0.792 with Venetoclax + Linsitinib (first compound 0.01 µM); 0.733 with Venetoclax + Linsitinib (first compound 0.03162 µM). Moreover, the relative viability with Venetoclax + Linsitinib (first compound 0.1 µM) was 0.695; with Venetoclax + Linsitinib (first compound 0.3162 µM), 0.741; with Venetoclax + Linsitinib (first compound 1 µM), 0.689; with Venetoclax + Pictilisib (first compound 0.01 µM) it was 0.482; with Venetoclax + Pictilisib (first compound 0.03162 µM), 0.538; in the assay with Venetoclax + Pictilisib (first compound 0.1 µM), 0.487. Further, the relative viability with Venetoclax + Pictilisib (first compound 0.3162 µM) came to 0.528; with Venetoclax + Pictilisib (first compound 1 µM), 0.488.

Regarding NCI-H2228, the relative viability is 0.423 with Venetoclax + OSI-027 (first compound 0.01 µM); 0.545 with Venetoclax + OSI-027 (first compound 0.03162 µM); 0.62 with Venetoclax + OSI-027 (first compound 0.1 µM); 0.546 with Venetoclax + OSI-027 (first compound 0.3162 µM); 0.396 in the assay with Venetoclax + OSI-027 (first compound 1 µM); 0.251 with Venetoclax + Tozasertib (first compound 0.01 µM). In addition, the relative viability came out at 0.313 with Venetoclax + Tozasertib (first compound 0.03162 µM); 0.288 in the assay with Venetoclax + Tozasertib (first compound 0.1 µM); 0.246 with Venetoclax + Tozasertib (first compound 0.3162 µM); 0.25 with Venetoclax + Tozasertib (first compound 1 µM); 0.717 with Venetoclax + Linsitinib (first compound 0.01 µM); 0.754 with Venetoclax + Linsitinib (first compound 0.03162 µM). Besides, the relative viability with Venetoclax + Linsitinib (first compound 0.1 µM) was determined as 0.631; with Venetoclax + Linsitinib (first compound 0.3162 µM) it was 0.724; in the assay with Venetoclax + Linsitinib (first compound 1 µM) it was 0.625; with Venetoclax + Pictilisib (first compound 0.01 µM), 0.321; with Venetoclax + Pictilisib (first compound 0.03162 µM), 0.416; in the assay with Venetoclax + Pictilisib (first compound 0.1 µM), 0.395. In addition, the figures for the relative viability in the assay with Venetoclax + Pictilisib (first compound 0.3162 µM) and in the assay with Venetoclax + Pictilisib (first compound 1 µM) were 0.358 and 0.494, respectively.

In the case of NCI-H2347, the relative viability with Venetoclax + OSI-027 (first compound 0.01 µM) stood at 0.32; in the assay with Venetoclax + OSI-027 (first compound 0.03162 µM), 0.417; with Venetoclax + OSI-027 (first compound 0.1 µM), 0.377; with Venetoclax + OSI-027 (first compound 0.3162 µM) it was 0.485; with Venetoclax + OSI-027 (first compound 1 µM), 0.372; with Venetoclax + Tozasertib (first compound 0.01 µM), 0.581. Besides, the relative viability in the assay with Venetoclax + Tozasertib (first compound 0.03162 µM) was determined as 0.634; with Venetoclax + Tozasertib (first compound 0.1 µM) it was 0.476; in the assay with Venetoclax + Tozasertib (first compound 0.3162 µM), 0.597; with Venetoclax + Tozasertib (first compound 1 µM) it was 0.541; in the assay with Venetoclax + Linsitinib (first compound 0.01 µM), 0.93; in the assay with Venetoclax + Linsitinib (first compound 0.03162 µM), 0.953. In addition, the relative viability is 1.01 with Venetoclax + Linsitinib (first compound 0.1 µM); 0.958 with Venetoclax + Linsitinib (first compound 0.3162 µM); 0.95 with Venetoclax + Linsitinib (first compound 1 µM); 0.606 with Venetoclax + Pictilisib (first compound 0.01 µM); 0.606 with Venetoclax + Pictilisib (first compound 0.03162 µM); 0.668 with Venetoclax + Pictilisib (first compound 0.1 µM). For the same cell line, the relative viability was 0.746 with Venetoclax + Pictilisib (first compound 0.3162 µM) and 0.123 in the assay with Venetoclax + Pictilisib (first compound 1 µM).

Take NCI-H2405: the relative viability was 0.64 with Venetoclax + OSI-027 (first compound 0.01 µM); 0.711 in the assay with Venetoclax + OSI-027 (first compound 0.03162 µM); 0.624 with Venetoclax + OSI-027 (first compound 0.1 µM); 0.612 in the assay with Venetoclax + OSI-027 (first compound 0.3162 µM); 0.619 in the assay with Venetoclax + OSI-027 (first compound 1 µM); 0.741 with Venetoclax + Tozasertib (first compound 0.01 µM). For the same cell line, the relative viability in the assay with Venetoclax + Tozasertib (first compound 0.03162 µM) was 0.783; with Venetoclax + Tozasertib (first compound 0.1 µM), 0.632; with Venetoclax + Tozasertib (first compound 0.3162 µM) it was 0.736; with Venetoclax + Tozasertib (first compound 1 µM), 0.645; with Venetoclax + Linsitinib (first compound 0.01 µM), 0.931; in the assay with Venetoclax + Linsitinib (first compound 0.03162 µM) it was 0.955. Further, the relative viability with Venetoclax + Linsitinib (first compound 0.3162 µM) is 0.989; in the assay with Venetoclax + Linsitinib (first compound 1 µM) it was 0.9; with Venetoclax + Pictilisib (first compound 0.01 µM), 0.505; with Venetoclax + Pictilisib (first compound 0.03162 µM), 0.472; with Venetoclax + Pictilisib (first compound 0.3162 µM) it was 0.394; with Venetoclax + Pictilisib (first compound 1 µM), 0.402.

For NCI-H3122, the relative viability with Venetoclax + OSI-027 (first compound 0.01 µM) came out at 1.09; with Venetoclax + OSI-027 (first compound 0.03162 µM), 0.979; with Venetoclax + OSI-027 (first compound 0.1 µM), 0.983; in the assay with Venetoclax + OSI-027 (first compound 0.3162 µM), 0.871; with Venetoclax + OSI-027 (first compound 1 µM), 0.909; with Venetoclax + Tozasertib (first compound 0.01 µM), 0.422. Further, the relative viability with Venetoclax + Tozasertib (first compound 0.03162 µM) stood at 0.565; with Venetoclax + Tozasertib (first compound 0.1 µM), 0.357; with Venetoclax + Tozasertib (first compound 0.3162 µM) it was 0.392; with Venetoclax + Tozasertib (first compound 1 µM), 0.405; in the assay with Venetoclax + Linsitinib (first compound 0.01 µM) it was 1.08; with Venetoclax + Linsitinib (first compound 0.03162 µM), 1.02. The relative viability in the assay with Venetoclax + Linsitinib (first compound 0.1 µM) is 0.969; with Venetoclax + Linsitinib (first compound 0.3162 µM), 1.06; with Venetoclax + Linsitinib (first compound 1 µM), 1.06; with Venetoclax + Pictilisib (first compound 0.01 µM), 0.797; in the assay with Venetoclax + Pictilisib (first compound 0.03162 µM), 0.619; with Venetoclax + Pictilisib (first compound 0.1 µM) it was 0.576. In addition, the figures for the relative viability in the assay with Venetoclax + Pictilisib (first compound 0.3162 µM) and with Venetoclax + Pictilisib (first compound 1 µM) were 0.568 and 0.683, respectively.

As to PC-3 [JPC-3], the relative viability stood at 0.676 in the assay with Venetoclax + OSI-027 (first compound 0.01 µM); 0.719 with Venetoclax + OSI-027 (first compound 0.03162 µM); 0.779 with Venetoclax + OSI-027 (first compound 0.1 µM); 0.791 with Venetoclax + OSI-027 (first compound 0.3162 µM); 0.608 with Venetoclax + OSI-027 (first compound 1 µM); 0.841 in the assay with Venetoclax + Tozasertib (first compound 0.01 µM). The relative viability with Venetoclax + Tozasertib (first compound 0.03162 µM) is 0.909; with Venetoclax + Tozasertib (first compound 0.1 µM), 0.816; with Venetoclax + Tozasertib (first compound 0.3162 µM) it was 0.88; with Venetoclax + Tozasertib (first compound 1 µM), 0.853; with Venetoclax + Linsitinib (first compound 0.01 µM), 0.922; with Venetoclax + Linsitinib (first compound 0.03162 µM) it was 1.01. The relative viability amounted to 0.977 with Venetoclax + Linsitinib (first compound 0.1 µM); 0.938 in the assay with Venetoclax + Linsitinib (first compound 0.3162 µM); 0.949 in the assay with Venetoclax + Linsitinib (first compound 1 µM); 0.643 with Venetoclax + Pictilisib (first compound 0.01 µM); 0.872 with Venetoclax + Pictilisib (first compound 0.03162 µM); 0.787 in the assay with Venetoclax + Pictilisib (first compound 0.1 µM). The relative viability in the assay with Venetoclax + Pictilisib (first compound 0.3162 µM) turned out to be 0.782; in the assay with Venetoclax + Pictilisib (first compound 1 µM) it was 0.67.
